Assay results from paper PMC9635472, “Design, synthesis, and biological evaluation of novel ciprofloxacin derivatives as potential anticancer agents targeting topoisomerase II enzyme” (Journal of Enzyme Inhibition and Medicinal Chemistry, 2022).
Several values for one entry are separate records, joined by “and”; a condition that tells them apart may be missing. Equal values may be shown once.

Experiments:
[1] = test system: Human bladder cancer (T-24) cell line; assay: MTT cell viability assay, T-24 cells; assay type: cell-based; settings: bladder cancer cell line T-24, treatment for 24 h (table title), means of three experiments, read-out: IC50 (μM* ± SD) T-24
Description: (§1) Human bladder cancer (T-24) and human prostate carcinoma (PC-3) cell lines were obtained from American Type Culture Collection (ATCC; Manassas, VA USA). Cells were maintained in Dulbecco’s modified Eagle medium with 10% foetal bovine serum at 37 °C and 5% CO2. All the operations were carried out under strict aseptic conditions. The culture medium was removed to a centrifuge tube containing 9.0 ml complete culture medium and spanned at approximately 125 × g for 5 to 7 min. The cell layer was rinsed with 0.25% (w/v) trypsin- […] EDTA solution by which all traces of serum-containing inhibitor were removed. Trypsin EDTA solution 2.0 to 3.0 ml was added to a flask and cells were monitored under an inverted microscope until the cell layer was dispersed (usually within 5–15 min). A complete growth medium was added (6.0–8.0 ml), and cells were aspirated by gentle pipetting. The cell pellet was suspended with the recommended complete medium and dispensed into a 75 cm^2 culture flask. The culture vessel containing the complete growth medium was placed in the incubator for 24 h to at 37 °C. The cells were treated with different concentrations (0.39, 1.60, 6.25, 25, and 100 μg/ml) of each of the test compounds or doxorubicin, […], then the plates were examined under the inverted microscope and finally the MTT assay was carried out.
(§2) Anti-cancer activity of the newly synthesised compounds was evaluated in vitro against both T-24 and PC-3 cell lines according to the MTT method. Cells were seeded into 96-well plates (flat bottom) at a density of 10 000 cells/well for 24 h. The vial of MTT to be used was reconstituted with 3 ml of medium or balanced salt solution without phenol red and serum. then, a reconstituted MTT vial was added in an amount equal to 10% of the culture medium volume. Cultures were incubated for 2–4 h depending on the cell type and maximum cell density and removed from the incubator and the formazan crystals were dissolved via the addition of an amount of MTT solubilisation solution (M-8910) equal to the original culture medium volume. ROBONIK P2000 spectrophotometer at a wavelength of 570 nm was used to measure the colour intensity spectrophotometrically. The survival curve of both T-24 and PC-3 cells was obtained by plotting the percentage of surviving cells against the drug after each compound. The IC50 value for each test compound and the reference drug doxorubicin was calculated.
(§3) In this study, all the newly synthesised CP derivatives were subjected to anticancer activity evaluation against bladder (T-24) and prostate cancer (PC-3) cell lines. The compounds were evaluated for their activity using 5 doses determinations (100 μg/ml, 25 μg/ml, 6.25 μg/ml, 1.60 μg/ml, and 0.39 μg/ml). Their half-maximal inhibitory concentration (IC50) values were measured. Doxorubicin was chosen as a reference anticancer drug[65].

[2] = test system: human prostate carcinoma (PC-3) cell line; assay: MTT cell viability assay, PC-3 cells; assay type: cell-based; settings: prostate cancer cell line PC-3, treatment for 24 h (table title), means of three experiments, read-out: IC50 (μM* ± SD) PC-3
Description: as §1, §2, §3

T-24 cells [3] = assay: Cell cycle analysis (propidium iodide flow cytometry), T-24 cells; assay type: cell-based, human; settings: for phase of cell cycle arrest: T-24 cancer cells
Description: (§4) The cell cycle was done using a propidium iodide flow cytometry kit (Abcam, ab139418) according to the manufacturer’s instructions. […] After treatment, the cells were washed twice with ice-cold phosphate buffer saline, then centrifuged and fixed using ice-cold 66% (v/v) ethanol, washed with phosphate buffer saline re-suspended with 0.10 mg/ml, and stained with 200 µl propidium iodide. Cells were analysed by flow cytometry. The cell cycle distributions were calculated using cell–quest software (Bectopn Dickinson).
While the accumulation of the cells in the S phase might result from the cell cycle arrest of T-24 cells in the S phase.

PC-3 cells = assay: Cell cycle analysis (propidium iodide flow cytometry), PC-3 cells; assay type: cell-based, human; settings: for phase of cell cycle arrest: PC-3 cells at IC50 concentrations
Description: as §4
Topoisomerase inhibitors cause DNA damage which is related to G1/S and S phase arrest. Cell cycle arrest prevents the replication of damaged DNA. In PC-3 cell line compounds 6 and 8a probably arrested the cell cycle in the G1 phase by inhibition of Cyclin D–Cdk4–Cdks complex, however in the T-24 cell line, they might arrest the cell cycle in the S phase by the inhibition of both Cyclin D–Cdk4–Cdks complex and cyclins E1–E2/Cdk2, which promote G1/S transition.

T-24 cells [4] = assay: Apoptosis determination by annexin V-FITC/PI assay, T-24 cells; assay type: cell-based, human; settings: at IC50, 24 h
Description: Apoptosis was evaluated using Annexin V fluorescein isothiocyanate (FITC) and propidium iodide (PI) using the Annexin V-FITC/PI apoptosis detection kit (Biovision, Mountain View, CA # K101-25). According to the manufacturer’s instructions after staining the cells with annexin V fluorescein (FITC) isothiocyanate. […] Cells were centrifuged and washed once with serum-containing media followed by resuspension in 500 µl of binding buffer. Then 5 µl Annexin V-FITC and 5 µl of (PI […]) were added and incubated for 5 min at room temperature in the dark. Analyses were performed using a flow cytometer (EX = 488 nm: Em = 530 nm) using a FITC signal detector and PI staining by a phycoerythrin emission signal detector.
To verify the ability of compounds 6 and 8a to induce apoptosis, a flow cytometry assay was performed using propidium iodide (PI), and immunofluorescent markers of the protein annexin-V. Dual staining for annexin-V and with PI provides the distinction between viable cells, early apoptotic cells, late apoptotic cells, and necrotic cells. […] While compound 8a induced both early and late apoptosis with 21.16- and 114.90-fold more than the control, respectively, and induced total apoptosis and necrosis with 20.1- and 4.28-fold more than the control, sequentially (Figure 14).

active caspase-3 = assay: Active caspase-3 ELISA in T-24 cells; assay type: cell-based, human; settings: 6 at 5.68 μM, 8a at 3.36 μM; for Caspase-3 conc. (pg/ml* ± SD): means of three experiments
Description: The level of the apoptotic marker caspase-3 was measured using The Invitrogen Caspase-3 (active) Human ELISA Kit. The procedure of the used kit was done according to the manufacturer’s instructions.
Caspase-3 (a key effector enzyme) plays an important role in apoptosis since its activation leads to catalysing specific enzymes responsible for DNA fragmentation, which leads to cell death. Apoptosis induction in T-24 cells by compounds 6 and 8a was investigated via caspase 3, compared to doxorubicin as a reference drug.

SMILES: O=C1CC(=O)N(C(=O)CN2CCN(c3cc4c(cc3F)c(=O)c(C(=O)O)cn4C3CC3)CC2)N1 [Compound 6, 1-cyclopropyl-7-(4-(2-(3,5-dioxopyrazolidin-1-yl)-2-oxoethyl)piperazin-1-yl)-6-fluoro-4-oxo-1,4-dihydroquinoline-3-carboxylic acid]
- IC50 [1]: 5.68 ± 0.3 µM
- IC50 [2]: 92.2 ± 4.69 µM
- phase of cell cycle arrest (T-24 cells [3]): S phase
- increase in the percentage of cells in the S phase compared to the control (T-24 cells [3]; T-24 cells, at IC50, 24 h): 1.4 fold
- phase of cell cycle arrest (PC-3 cells): G1-phase cell cycle arrest
- decrease in the percentage of cells at the G2/M phase (PC-3 cells; PC-3 cells, at IC50, 24 h): 1.5 fold
- increase in the percentage of cells at the G1 phase compared to the control (PC-3 cells; PC-3 cells, at IC50, 24 h): 1.16 fold
- early apoptosis, fold more than the control (T-24 cells [4]): 16.27 fold
- late apoptosis, fold more than the control (T-24 cells [4]): 83.38 fold
- necrosis, fold more than the control (T-24 cells [4]): 6.25 fold
- total apoptosis, fold more than the control (T-24 cells [4]): 16.77 fold and 16.8 fold
- increase in level of active caspase-3 compared to the control (active caspase-3): 5.23 fold
- Caspase-3 conc. (pg/ml* ± SD) (active caspase-3): 362.9 ± 8.58 pg/mL

SMILES: O=C(CN1CCN(c2cc3c(cc2F)c(=O)c(C(=O)O)cn3C2CC2)CC1)NN=C1C(=O)Nc2ccccc21 [Compound 8a, 1-Cyclopropyl-6-fluoro-4-oxo-7-(4-(2-oxo-2-(2-(2-oxoindolin-3-ylidene)hydrazinyl)ethyl)piperazin-1-yl)-1,4-dihydroquinoline-3-carboxylic acid]
- IC50 [1]: 3.36 ± 0.19 µM
- IC50 [2]: 11 ± 0.56 µM
- phase of cell cycle arrest (T-24 cells [3]): S phase
- increase in the percentage of cells at pre-G1 compared to the control (T-24 cells [3]; T-24 cells, at IC50, 24 h): 20.1 fold
- increase in the percentage of cells in the S phase compared to the control (T-24 cells [3]; T-24 cells, at IC50, 24 h): 1.11 fold
- phase of cell cycle arrest (PC-3 cells): G1-phase cell cycle arrest
- increase in the percentage of cells at the G1 phase compared to the control (PC-3 cells; PC-3 cells, at IC50, 24 h): 1.27 fold
- early apoptosis, fold more than the control (T-24 cells [4]): 21.16 fold
- late apoptosis, fold more than the control (T-24 cells [4]): 114.90 fold
- necrosis, fold more than the control (T-24 cells [4]): 4.28 fold
- total apoptosis, fold more than the control (T-24 cells [4]): 20.1 fold
- increase in level of active caspase-3 compared to the control (active caspase-3): 7.6 fold
- Caspase-3 conc. (pg/ml* ± SD) (active caspase-3): 527.6 ± 8.39 pg/mL
